According to patent US20200188465A1, “TREATMENT OF CYTOKINE RELEASE SYNDROME BY DECREASING LEVEL OF PROINFLAMMATORY CYTOKINE” (Gwo Xi Stem Cell Applied Technology Co., Ltd., priority 2018, published 2020):
“Also recorded” adds a separate entry of the source. Like-named read-outs stand apart in the source and are kept apart here.

Experiments:
Type in all cases: cell-based, Human
IFN-γ [1] = assay: IFN-γ release (ELISA) of Jurkat T cells pre-stimulated with PMA plus ionomycin, then drug (Embodiment 1); settings: for IFN-γ/cell viability: Jurkat pretreated PMA + ionomycin; for IFN-γ content in the cells is reduced at least: summary, concentration not given
Method: (§1) Human Jurkat T cell line (Clone E6-1, ATCC TIB 152) and THP-1 were used in the embodiments and purchased from Bioresource Collection and Research Centre (BCRC), Taiwan. The cells were maintained in RPMI 1640 medium (Gibco, Carlsbad, Calif., USA) with 2 mM L-glutamine adjusted to contain 1.5 g/L sodium bicarbonate, 4.5 g/L glucose, 10 mM HEPES, 1.0 mM sodium pyruvate, 1% (v/v) penicillin-streptomycin (HyClone, Logan, Utah), and 10% (v/v) fetal bovine serum (FBS; HyClone). The cells were kept in the incubator with 5% CO2 at 37° C. The passages were performed when the cell density didn't allow the cell concentration to exceed 3×10^6 cells/mL.
(§2) Jurkat cells were seeded in 48-well culture plates at a density of 5.0×10^5 cells/mL in culture medium. To promote Interferon gamma (IFN-γ; IFNG) production, the cells were stimulated with or without the combination of PMA and Ionomycin in culture medium. THP-1 cells were treated with or without the LPS that promoted IL6 production.
(§3) The culture supernatants were harvested by centrifugation and stored at −20° C. for cytokine analysis. The concentration of IFN-γ and IL6 were measured by ELISA kit (Invitrogen, Carlsbad, Calif., USA) according to the manufacturer's instructions.
(§4) After 6 and 24 hours, the supernatants were collected for cell viability analysis and cytokine analysis. The concentration of cytokine was measured by Human IFN-γ ELISA kit (Invitrogen) according to the manufacturers.

THP-1 cells = assay: Cell viability (MTS) of THP-1 cells pre-stimulated with LPS, then drug (Embodiment 2)
IL6 = IL6 release (ELISA) of THP-1 cells pre-stimulated with LPS, then drug (Embodiment 2); settings: for IL6/cell viability: THP-1 pretreated LPS; for IL-6 content in the cells is reduced at least: summary, concentration not given
Method: HyClone). […] The passages were performed when the cell density didn't allow the cell concentration to exceed 3×10^6 cells/mL. Jurkat cells were seeded in 48-well culture plates at a density of 5.0×10^5 cells/mL in culture medium. To promote Interferon gamma (IFN-γ; IFNG) production, the cells were stimulated with or without the combination of PMA and Ionomycin in culture medium. THP-1 cells were treated with or without the LPS that promoted IL6 production. The culture supernatants were harvested by centrifugation and stored at −20° C. for cytokine analysis. The concentration of IFN-γ and IL6 were measured by ELISA kit (Invitrogen, Carlsbad, Calif., USA) according to the manufacturer's instructions. […] The concentration of cytokine was measured by IL6 ELISA kit (Invitrogen) according to the manufacturers.

Jurkat T cells = assay: Cell viability (MTS) of Jurkat T cells pre-stimulated with PMA plus ionomycin, then drug (Embodiment 1)
Method: as §1, §2
(§5) The cell viability was determined using MTS reagent (Promega). Assays were performed by adding MTS to each well for 3 hours at 37° C. with 5% CO2. The amount of formazan converted by living cells, and then recording absorbance at 490 nm with a 96-well plate reader.
as §4

Jurkat cells = assay: Cell viability (MTS) of Jurkat cells co-treated with PMA, ionomycin and drug (Embodiments 3 and 4)
Method: as §1, §5
(§6) In the Embodiment, Jurkat cells were seeded in 48-well culture plates at a density of 5.0×10^5 cells/mL indifferent culture medium, and each of the culture medium contains PMA, ionomycin, and THZ in the proportions shown in Table 3 below.
(§7) After 24 and 48 hours, the supernatants were collected for cell viability analysis and cytokine analysis. The concentration of cytokine was measured by Human IFN-γ ELISA kit (Invitrogen) according to the manufacturers.
(§8) In the Embodiment, Jurkat cells were seeded in 48-well culture plates at a density of 5.0×10^5 cells/mL in different culture medium, and each of the culture medium contains PMA, ionomycin, and HH-F3 in the proportions shown in Table 4 below.
(§9) After 24, 30, and 48 hours, the supernatants were collected for cell viability analysis and cytokine analysis. The concentration of cytokine was measured by Human IFN-γ ELISA kit (Invitrogen) according to the manufacturers.

IFN-γ [2] = assay: IFN-γ release (ELISA) of Jurkat cells co-treated with PMA, ionomycin and drug (Embodiments 3 and 4); settings: for inhibition at 1 µM / inhibition at 5 µM: Homo sapiens, Jurkat, read-out: IFN-γ/cell viability lower than group 2 (PI alone); for inhibition at 1 µM: group 3 (THZ 1 μM); for inhibition at 5 µM: group 4 (THZ 5 μM); for effect on cytokine induction, in words: co-treatment with PMA + ionomycin
Method: as §1, §3, §6, §7, §8, §9

[3] = drug 1 μM, 6 h, IFN-γ normalized with cell viability
[4] = drug 1 μM, 6 h, THP-1 pretreated LPS 0.1 μg/mL 16 h
[5] = drug 1 μM, 24 h, THP-1 pretreated LPS
[6] = drug 5 μM, 6 h, THP-1 pretreated LPS
[7] = drug 5 μM, 24 h, THP-1 pretreated LPS
[8] = drug 10 μM, 6 h, THP-1 pretreated LPS
[9] = drug 10 μM, 24 h, THP-1 pretreated LPS
[10] = drug 1 μM, 6 h, IL6 normalized with cell viability
[11] = drug 1 μM, 6 h, Jurkat pretreated PMA 0.01 μg/mL + ionomycin 1 μM 24 h
[12] = drug 1 μM, 24 h, Jurkat pretreated PMA + ionomycin
[13] = drug 5 μM, 6 h, Jurkat pretreated PMA + ionomycin
[14] = drug 5 μM, 24 h, Jurkat pretreated PMA + ionomycin
[15] = drug 10 μM, 6 h, Jurkat pretreated PMA + ionomycin
[16] = drug 10 μM, 24 h, Jurkat pretreated PMA + ionomycin
[17] = group 3, THZ 1 μM co-treated with PI, 48 hr
[18] = group 4, THZ 5 μM co-treated with PI, 24 hr
[19] = group 4, THZ 5 μM co-treated with PI, 48 hr
[20] = at 24 hours after administering

Structure (SMILES): CN1CCN(CCCN2c3ccccc3Sc3ccc(C(F)(F)F)cc32)CC1 [TFP, Trifluoperazine]
- IFN-γ/cell viability (IFN-γ [1]; [3]): 41.8 pg/mL
- IFN-γ/cell viability (IFN-γ [1]; drug 1 μM, 24 h): 39.7 pg/mL
- IFN-γ/cell viability (IFN-γ [1]; drug 5 μM, 6 h): 35.7 pg/mL
- IFN-γ/cell viability (IFN-γ [1]; drug 5 μM, 24 h): 32.5 pg/mL
- IFN-γ/cell viability (IFN-γ [1]; drug 10 μM, 6 h): 40.9 pg/mL
- IFN-γ/cell viability (IFN-γ [1]; drug 10 μM, 24 h): 35.6 pg/mL
- Cell Viability (%) (THP-1 cells; [4]): 63 ± 6%
- Cell Viability (%) (THP-1 cells; [5]): 96 ± 9%
- Cell Viability (%) (THP-1 cells; [6]): 75 ± 4%
- Cell Viability (%) (THP-1 cells; [7]): 82 ± 9%
- Cell Viability (%) (THP-1 cells; [8]): 71 ± 8%
- Cell Viability (%) (THP-1 cells; [9]): 75 ± 8%
- IL6/cell viability (IL6; [10]): 43.9 pg/mL
- IL6/cell viability (IL6; drug 1 μM, 24 h): 42.8 pg/mL
- IL6/cell viability (IL6; drug 5 μM, 6 h): 35.6 pg/mL
- IL6/cell viability (IL6; drug 5 μM, 24 h): 33.9 pg/mL
- IL6/cell viability (IL6; drug 10 μM, 6 h): 32.5 pg/mL
- IL6/cell viability (IL6; drug 10 μM, 24 h): 38.4 pg/mL
- Cell Viability (%) (Jurkat T cells; [11]): 91 ± 2%
- Cell Viability (%) (Jurkat T cells; [12]): 72 ± 5%
- Cell Viability (%) (Jurkat T cells; [13]): 88 ± 9%
- Cell Viability (%) (Jurkat T cells; [14]): 70 ± 4%
- Cell Viability (%) (Jurkat T cells; [15]): 86 ± 4%
- Cell Viability (%) (Jurkat T cells; [16]): 72 ± 7%

Structure (SMILES): CSc1ccc2c(c1)N(CCC1CCCCN1C)c1ccccc1S2 (stereo not drawn) [THZ, Thioridazine]
- effect on cell viability, in words (Jurkat cells; co-treatment with PMA + ionomycin): does not affect cell viability
- Cell Viability (%) (Jurkat cells; [17]): 71 ± 4%
- Cell Viability (%) (Jurkat cells; group 3, THZ 1 μM co-treated with PMA 0.01 μg/mL + ionomycin 1 μM, 24 hr): 81 ± 4%
- Cell Viability (%) (Jurkat cells; [18]): 74 ± 6%
- Cell Viability (%) (Jurkat cells; [19]): 65 ± 4%
- IFN-γ content in the cells reduced (IFN-γ [1]; 1 μM, after 6 hours, vs PMA + ionomycin alone): 18.6%
- IFN-γ content in the cells reduced (IFN-γ [1]; 1 μM, after 24 hours): 28.2%
- IFN-γ content in the cells reduced (IFN-γ [1]; 5 μM, after 6 hours): 23.7%
- IFN-γ content in the cells reduced (IFN-γ [1]; 5 μM, after 24 hours): 57.7%
- IFN-γ content in the cells reduced (IFN-γ [1]; 10 μM, after 6 hours): 36.2%
- IFN-γ content in the cells reduced (IFN-γ [1]; 10 μM, after 24 hours): 52.2%
- effect on IFN-γ content, in words (IFN-γ [1]; Jurkat, PMA + ionomycin, 6 hr and 24 hr): significantly decreased IFN-γ expression; also recorded: stronger effects to cells compared to TFP and SAHA
- IFN-γ content in the cells is reduced at least (IFN-γ [1]; at 6 hours after administering): at least 18.6%
- IFN-γ content in the cells is reduced at least (IFN-γ [1]; [20]): at least 28.2%
- IFN-γ/cell viability (IFN-γ [1]; [3]): 38.4 pg/mL
- IFN-γ/cell viability (IFN-γ [1]; drug 1 μM, 24 h): 24.4 pg/mL
- IFN-γ/cell viability (IFN-γ [1]; drug 5 μM, 6 h): 36.0 pg/mL
- IFN-γ/cell viability (IFN-γ [1]; drug 5 μM, 24 h): 14.4 pg/mL
- IFN-γ/cell viability (IFN-γ [1]; drug 10 μM, 6 h): 30.1 pg/mL
- IFN-γ/cell viability (IFN-γ [1]; drug 10 μM, 24 h): 16.3 pg/mL
- inhibition at 1 µM (IFN-γ [2]; 24 hr): 46.5%
- inhibition at 1 µM (IFN-γ [2]; 48 hr): 18.7%
- inhibition at 5 µM (IFN-γ [2]; 24 hr): 45.3%
- inhibition at 5 µM (IFN-γ [2]; 48 hr): 1%
- effect on cytokine induction, in words (IFN-γ [2]): significantly attenuated cytokine induction in Jurkat cells
- effect on cytokine induction, in words (IFN-γ [2]; listed as Thioridazine): able to reduce cytokine production
- IFN-γ/cell viability (IFN-γ [2]; group 3, THZ 1 μM co-treated with PI, 24 hr): 34.9 ± 0.5 pg/mL
- IFN-γ/cell viability (IFN-γ [2]; [17]): 32.6 ± 0.6 pg/mL
- IFN-γ/cell viability (IFN-γ [2]; [18]): 35.7 ± 0.2 pg/mL
- IFN-γ/cell viability (IFN-γ [2]; [19]): 39.7 ± 0.6 pg/mL
- Cell Viability (%) (THP-1 cells; [4]): 88 ± 7%
- Cell Viability (%) (THP-1 cells; [5]): 103 ± 1%
- Cell Viability (%) (THP-1 cells; [6]): 79 ± 5%
- Cell Viability (%) (THP-1 cells; [7]): 101 ± 8%
- Cell Viability (%) (THP-1 cells; [8]): 68 ± 4%
- Cell Viability (%) (THP-1 cells; [9]): 87 ± 5%
- IL-6 content in the cells reduced (IL6; 1 μM, after 6 hours, vs LPS alone): 20.7%
- IL-6 content in the cells reduced (IL6; 1 μM, after 24 hours): 39.5%
- IL-6 content in the cells reduced (IL6; 5 μM, after 6 hours): 37.1%
- IL-6 content in the cells reduced (IL6; 5 μM, after 24 hours): 51.8%
- IL-6 content in the cells reduced (IL6; 10 μM, after 6 hours): 45.9%
- IL-6 content in the cells reduced (IL6; 10 μM, after 24 hours): 65.2%
- IL-6 content in the cells is reduced at least (IL6; "at hours after administering" (number not given)): at least 20.7%
- effect on IL-6 content, in words (IL6; Table 2, 6 hr and 24 hr): stronger effects to cells compared to TFP
- IL-6 content in the cells is reduced at least (IL6; [20]): at least 39.5%
- IL6/cell viability (IL6; [10]): 52.9 pg/mL
- IL6/cell viability (IL6; drug 1 μM, 24 h): 41.3 pg/mL
- IL6/cell viability (IL6; drug 5 μM, 6 h): 41.9 pg/mL
- IL6/cell viability (IL6; drug 5 μM, 24 h): 32.9 pg/mL
- IL6/cell viability (IL6; drug 10 μM, 6 h): 36.1 pg/mL
- IL6/cell viability (IL6; drug 10 μM, 24 h): 23.7 pg/mL
- Cell Viability (%) (Jurkat T cells; [11]): 79 ± 5%
- Cell Viability (%) (Jurkat T cells; [12]): 69 ± 6%
- Cell Viability (%) (Jurkat T cells; [13]): 77 ± 2%
- Cell Viability (%) (Jurkat T cells; [14]): 69 ± 4%
- Cell Viability (%) (Jurkat T cells; [15]): 77 ± 2%
- Cell Viability (%) (Jurkat T cells; [16]): 55 ± 3%

Structure (SMILES): O=C(CCCCCCC(=O)Nc1ccccc1)NO [SAHA, Suberoylanilide hydroxamic acid]
- IFN-γ/cell viability (IFN-γ [1]; [3]): 25.5 pg/mL
- IFN-γ/cell viability (IFN-γ [1]; drug 1 μM, 24 h): 33.8 pg/mL
- IFN-γ/cell viability (IFN-γ [1]; drug 5 μM, 6 h): 28.2 pg/mL
- IFN-γ/cell viability (IFN-γ [1]; drug 5 μM, 24 h): 34.0 pg/mL
- IFN-γ/cell viability (IFN-γ [1]; drug 10 μM, 6 h): 28.0 pg/mL
- IFN-γ/cell viability (IFN-γ [1]; drug 10 μM, 24 h): 32.0 pg/mL
- Cell Viability (%) (Jurkat T cells; [11]): 70 ± 9%
- Cell Viability (%) (Jurkat T cells; [12]): 53 ± 5%
- Cell Viability (%) (Jurkat T cells; [13]): 65 ± 7%
- Cell Viability (%) (Jurkat T cells; [14]): 59 ± 2%
- Cell Viability (%) (Jurkat T cells; [15]): 65 ± 2%
- Cell Viability (%) (Jurkat T cells; [16]): 60 ± 6%
